These are literature values, as cited in publication PMC9054008 (Science Advances, 2022).

In the data set the target is I-Ab (Mus musculus, UniProt P14434+P14483). Particulars: cited from earlier work.
Sequence of I-Ab (P14434 whole entry, looked up): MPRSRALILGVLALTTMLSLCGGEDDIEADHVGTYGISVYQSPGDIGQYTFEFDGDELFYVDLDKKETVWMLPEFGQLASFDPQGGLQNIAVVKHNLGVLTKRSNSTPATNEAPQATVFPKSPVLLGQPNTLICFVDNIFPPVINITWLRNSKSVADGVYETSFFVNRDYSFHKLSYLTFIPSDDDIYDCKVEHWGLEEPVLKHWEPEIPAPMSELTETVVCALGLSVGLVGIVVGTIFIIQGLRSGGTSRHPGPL
Sequence of I-Ab (P14483 whole entry, looked up): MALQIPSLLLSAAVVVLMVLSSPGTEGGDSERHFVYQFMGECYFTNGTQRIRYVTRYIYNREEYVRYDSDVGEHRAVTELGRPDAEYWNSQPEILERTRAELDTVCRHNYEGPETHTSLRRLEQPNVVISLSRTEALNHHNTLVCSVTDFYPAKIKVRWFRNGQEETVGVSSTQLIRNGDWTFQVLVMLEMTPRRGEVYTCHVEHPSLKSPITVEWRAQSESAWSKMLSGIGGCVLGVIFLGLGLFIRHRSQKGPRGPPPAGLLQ

As usually defined, the IC50 is the concentration needed to halve the response being measured. In the case of EEALNVALAVVTLLA, the IC50 is 2.73 µM. In the case of TKKSIKEIASSISRL, the IC50 is 3.77 µM. Take ILKGVINIWGSGLLQ: the IC50 is 7.27 µM. Consider SGDAMARNISSRTLE, for which the IC50 is 5.34 µM. For the sequence NSLILLECFVRSSPA, the IC50 is 6.03 µM.

Turning to RHIVGKPCPKPHRLN, the IC50 was 8.7 µM. Consider MDLADLFNAQPGLTS, for which the half-inhibitory concentration (IC50) is 5.78 µM. Take IEDAKRMIAISAKVA: the IC50 is 6.99 µM. For KVFNTRRNTLLFLDL, the IC50 is 4.62 µM. Take MGQLISFFGEIPSII: the IC50 is 9.64 µM.
